For the series, the system named is GENE-TOX genotoxicity assays, various organisms and cells. Nature of the series: GENE-TOX mutagenicity studies. The following applies: for call: Assay Type: In vivo carcinogenicity studies.
[1] abbreviates: Species/Cell Type: Drosophila melanogaster, Assay Type: Sex-linked recessive lethal gene mutation, Assay Code: SRLT, Evaluation Type: Evaluation A (Pre-1980).
[2] abbreviates: Species/Cell Type: Salmonella typhimurium (one or more of the five standard strains: TA98, TA100, TA1535, TA1537, and TA1538), Assay Type: Histidine reverse gene mutation, Ames assay, Assay Code: SALT, Evaluation Type: Evaluation A (Pre-1980).
Setting [3] is: Species/Cell Type: Nonhuman, Assay Code: CCG+, Evaluation Type: Evaluation A (Pre-1980).
Where [4] appears, read: Species/Cell Type: Mammalian polychromatic erythrocytes, Assay Type: Micronucleus test, chromosome aberrations, Assay Code: MNTT, Evaluation Type: Evaluation B (Post-1980).
Setting [5] is: Species/Cell Type: Rodents, Sex: Male, Assay Type: Dominant lethal test, Assay Code: DLT-, Evaluation Type: Evaluation A (Pre-1980).
Where [6] appears, read: Species/Cell Type: Salmonella typhimurium (one or more of the five standard strains: TA98, TA100, TA1535, TA1537, and TA1538), Assay Type: Histidine reverse gene mutation, Ames assay, Assay Code: SAL+, Evaluation Type: Evaluation A (Pre-1980).
The mark [7] stands for this setting: Species/Cell Type: Drosophila melanogaster, Assay Type: Sex-linked recessive lethal gene mutation, Assay Code: SRL+, Evaluation Type: Evaluation A (Pre-1980).
The mark [8] stands for this setting: Species/Cell Type: Mouse, Sex: Male, Assay Type: Sperm morphology, Assay Code: SPI-, Evaluation Type: Evaluation A (Pre-1980).
Setting [9] is: Species/Cell Type: Salmonella typhimurium, Assay Type: Forward and reverse gene mutation, host-mediated assay, Assay Code: HMA+, Evaluation Type: Evaluation A (Pre-1980).
Where [10] appears, read: Species/Cell Type: Salmonella typhimurium (one or more of the five standard strains: TA98, TA100, TA1535, TA1537, and TA1538), Assay Type: Histidine reverse gene mutation, Ames assay, Assay Code: SAL-, Evaluation Type: Evaluation A (Pre-1980).

Each structure is given as a SMILES string. Activity calls are given as the source filed them. The rule behind the calls is not given here.

On to `COCCOC1=C(N2CC2)C(=O)C(OCCOC)=C(N2CC2)C1=O`, for which the mutagenic call by setting is: under setting [1], “no conclusion”; (Species/Cell Type: Nonhuman, Assay Type: Sister-chromatid exchange (SCE) in vitro, Assay Code: SC2+D, Dose Response: With dose response, Evaluation Type: Evaluation B (Post-1980)) “active; positive”.

Take `CC[C@@]1(O)C[C@H](O[C@H]2C[C@H](NC)[C@H](O)[C@H](C)O2)c2c(cc3c(c2O)C(=O)c2c(O)cccc2C3=O)[C@H]1C(=O)OC`: the mutagenic call under setting [2] is reported as “no conclusion”.

On to `CCSCCSP(=S)(OC)OC`, for which, under “Species/Cell Type: Mammalian polychromatic erythrocytes, Assay Type: Micronucleus test, chromosome aberrations, Assay Code: MNT+U, Dose Response: Unconfirmed positive response, Evaluation Type: Evaluation B (Post-1980)”, the mutagenic call was “active; positive”.

As for `C[C@]12CCC3=C4CCC(=O)C=C4CC[C@H]3[C@@H]1CC[C@@]2(O)CC#N`, the mutagenic call (Species/Cell Type: Rabbit, Sex: Male, Assay Type: Sperm morphology, Assay Code: SPR+, Evaluation Type: Evaluation A (Pre-1980)) was “active; positive”.

As to `CC(C)(Oc1ccc(C2CCCc3ccccc32)cc1)C(=O)O` (centres undefined), the call under setting [3] is “active; positive”.

For the compound `C/C=C1\C[C@H]2[C@@H](OC)Nc3cc(O)c(OC)cc3C(=O)N2C1`, the mutagenic call under setting [4] is given as “no conclusion”.

With `COC(=O)COc1ccc(Cl)cc1CSC(=N)N`, the mutagenic call (Species/Cell Type: Saccharomyces cerevisiae, Assay Type: Reverse gene mutation, Assay Code: YERT, Evaluation Type: Evaluation A (Pre-1980)) is listed as “no conclusion”.

Regarding `CN(C)CC/C=C1\c2ccccc2CSc2ccccc21`, the mutagenic call under setting [5] is “inactive; negative”.

Regarding `Cc1c2ccccc2c2ccc3cccc4ccc1c2c43`, the mutagenic call (Species/Cell Type: Chinese hamster lung (V79) cells, Assay Type: Forward gene mutation at the HPRT or ouabain locus, Assay Code: V79+*, Activation: With metabolic activation, Evaluation Type: Evaluation A (Pre-1980)) is “active; positive”. Besides, the call under setting [3] is “active; positive”.

`CCNC1(c2ccccc2)CCCCC1`: where the note is “Species/Cell Type: Syrian hamster embryo (SA7/SHE) cells, Assay Type: Cell transformation, viral enhanced, Assay Code: CT7+, Evaluation Type: Evaluation A (Pre-1980)”, the mutagenic call is “active; positive”.

For the compound `Cn1cncc1[N+](=O)[O-]`, under setting [6], the mutagenic call was “active; positive”.

`Cc1c[nH]c(=O)[nH]c1=O`: the mutagenic call under setting [1] is listed as “no conclusion” and the mutagenic call (Species/Cell Type: Nonhuman, Assay Type: Sister-chromatid exchange (SCE) in vitro, Assay Code: SC2T, Evaluation Type: Evaluation B (Post-1980)) is “no conclusion”.

As for `CC(=O)Nc1nc(-c2cc([N+](=O)[O-])cs2)cs1`, the mutagenic call under setting [6] is “active; positive”.

`CN1CCN(CCCN2c3ccccc3Sc3ccc(C(F)(F)F)cc32)CC1`: the mutagenic call by setting is: (Species/Cell Type: Hordeum vulgare (barley), Assay Type: Chromosome aberrations, Assay Code: HOC+, Evaluation Type: Evaluation A (Pre-1980)) “active; positive”; (Species/Cell Type: Mammalian polychromatic erythrocytes, Assay Type: Micronucleus test, chromosome aberrations, Assay Code: MNT+, Evaluation Type: Evaluation B (Post-1980)) “active; positive”.

As to `O=NN(CCCl)C(=O)NC(NC(=O)N(CCCl)N=O)(c1ccccc1)c1ccccc1`, under setting [7], the mutagenic call was “active; positive”.

As for `O=[N+]([O-])c1ccc(N=Nc2c(O)ccc3ccccc23)c([N+](=O)[O-])c1`, the mutagenic call under setting [6] was “active; positive”.

Consider `O=C1N(CCO)CCN1/N=C/c1ccc([N+](=O)[O-])o1`, for which the mutagenic call under setting [6] was “active; positive”.

For the compound `Clc1cc(N2CC2)nc(N2CC2)n1`, the mutagenic call (Species/Cell Type: Aspergillus nidulans, Assay Type: Forward gene mutation, Assay Code: ASF+, Evaluation Type: Evaluation A (Pre-1980)) is “active; positive”.

With `O=NN1CCOCC1`, the mutagenic call reads like this: (Species/Cell Type: Chinese hamster lung (V79) cells, Assay Type: Forward gene mutation at the HPRT or ouabain locus, Assay Code: V79+, Evaluation Type: Evaluation A (Pre-1980)) “active; positive”; under setting [7], “active; positive”; (Species/Cell Type: Drosophila melanogaster, Sex: Male, Assay Type: Heritable translocation test, chromosome aberrations, Assay Code: DHTT, Evaluation Type: Evaluation A (Pre-1980)) “no conclusion”; (Species/Cell Type: Human lymphocytes or leukocytes, Assay Type: Chromosome aberrations in vivo, Assay Code: CY8+, Evaluation Type: Evaluation A (Pre-1980)) “active; positive”; (Species/Cell Type: Mammalian polychromatic erythrocytes, Assay Type: Micronucleus test, chromosome aberrations, Assay Code: MNT+, Evaluation Type: Evaluation A (Pre-1980)) “active; positive”; under setting [8], “inactive; negative”. The mutagenic call was “active; positive” (Species/Cell Type: Nonhuman lymphocytes or leukocytes, Assay Type: Chromosome aberrations in vivo, Assay Code: CY%+, Evaluation Type: Evaluation A (Pre-1980)); “active; positive” (Species/Cell Type: Nonhuman, Assay Type: Sister-chromatid exchange (SCE) in vitro, Assay Code: SC2+D*, Activation: With metabolic activation, Dose Response: With dose response, Evaluation Type: Evaluation B (Post-1980)); “active; positive” (Species/Cell Type: Nonhuman, Assay Type: Sister-chromatid exchange (SCE) in vivo, Assay Code: SC3+D, Dose Response: With dose response, Evaluation Type: Evaluation B (Post-1980)); “active; positive” (Species/Cell Type: Rat primary hepatocytes, Assay Type: Unscheduled DNA synthesis (UDS) in vitro, DNA effects, Assay Code: UDP+, Evaluation Type: Evaluation A (Pre-1980)); “no conclusion” under setting [2]; “active; positive” under setting [9]. In addition, under setting [3], the call was “active; positive”.

Turning to `COc1ccc2c(ccc3c4c(ccc32)C(C)=CC4)c1`, the mutagenic call (Species/Cell Type: Salmonella typhimurium (one or more of the five standard strains: TA98, TA100, TA1535, TA1537, and TA1538), Assay Type: Histidine reverse gene mutation, Ames assay, Assay Code: SAL+*, Activation: With metabolic activation, Evaluation Type: Evaluation A (Pre-1980)) was “active; positive”.

With `CCN(CC)CCn1c2ccc(CO)c3c2c([n+]1[O-])-c1ccc(Cl)cc1S3`, the mutagenic call is “active; positive” under setting [6]; “no conclusion” under setting [2]; “active; positive” (Species/Cell Type: Salmonella typhimurium, Assay Type: Forward and reverse gene mutation, body fluid assay, Assay Code: BFU+, Evaluation Type: Evaluation A (Pre-1980)); “active; positive” under setting [9].

As to `O=C([O-])[O-].[Cd+2]`, where the note is “Species/Cell Type: Nonhuman, Assay Type: Sister-chromatid exchange (SCE) in vitro, Assay Code: SC2+, Evaluation Type: Evaluation B (Post-1980)”, the mutagenic call is “active; positive”.

As to `CC(=O)Oc1ccccc1C(=O)O`, the mutagenic call (Species/Cell Type: Mammalian polychromatic erythrocytes, Assay Type: Micronucleus test, chromosome aberrations, Assay Code: MNTT, Evaluation Type: Evaluation A (Pre-1980)) is “no conclusion” and the mutagenic call under setting [8] was “inactive; negative”.

With `Oc1cccc2cc3cccc(O)c3c(O)c12`, the mutagenic call was “active; positive” (Species/Cell Type: Escherichia coli polA (W3119 vs P3478), Assay Type: Rec-assay, DNA effects (bacterial DNA repair), Assay Code: RE1+, Evaluation Type: Evaluation A (Pre-1980)); “active; positive” (Species/Cell Type: Fischer rat embryo (RLV/1706) cells, Assay Type: Cell transformation, viral enhanced, Assay Code: CTR+, Evaluation Type: Evaluation A (Pre-1980)); “inactive; negative” (Species/Cell Type: Mammalian polychromatic erythrocytes, Assay Type: Micronucleus test, chromosome aberrations, Assay Code: MNT-, Evaluation Type: Evaluation B (Post-1980)); “inactive; negative” (Species/Cell Type: Mouse (BALB/c-3T3) cells, Assay Type: Cell transformation, Assay Code: CTB-, Evaluation Type: Evaluation A (Pre-1980)); “inactive; negative” under setting [10]; “inactive; negative” (Species/Cell Type: Salmonella typhimurium, Assay Type: Forward and reverse gene mutation, host-mediated assay, Assay Code: HMA-, Evaluation Type: Evaluation A (Pre-1980)). Besides, the mutagenic call (Species/Cell Type: Syrian hamster embryo (SHE) cells, Assay Type: Cell transformation, clonal assay, Assay Code: CTC-, Evaluation Type: Evaluation A (Pre-1980)) is “inactive; negative”. Moreover, the call (Species/Cell Type: Nonhuman, Assay Code: CCGT, Evaluation Type: Evaluation A (Pre-1980)) was “no conclusion”.

Turning to `NC[C@H]1O[C@H](O[C@H]2[C@H](O[C@@H]3O[C@H](CO)[C@@H](O)[C@H]3O)[C@@H](O)[C@H](N)C[C@@H]2N)[C@H](N)[C@@H](O)[C@@H]1O`, the mutagenic call (Species/Cell Type: Saccharomyces cerevisiae, Assay Type: Mitotic recombination or gene conversion, Assay Code: YEH-, Evaluation Type: Evaluation A (Pre-1980)) was “inactive; negative”.

As to `O=c1ccc2ccccc2[nH]1`, the mutagenic call under setting [10] is “inactive; negative”.

Turning to `CNC(=O)Nc1nc(-c2ccc(OC)cc2)cs1`, the mutagenic call (Species/Cell Type: Salmonella typhimurium, Assay Type: Forward and reverse gene mutation, host-mediated assay, Assay Code: HMAT, Evaluation Type: Evaluation A (Pre-1980)) is on record as “no conclusion”.

As to `Clc1cc2c(cc1Cl)Oc1cc(Cl)c(Cl)cc1O2`, the mutagenic call runs as follows: under setting [4], “no conclusion”; (Species/Cell Type: Nonhuman, Assay Type: Sister-chromatid exchange (SCE) in vivo, Assay Code: SC3T, Evaluation Type: Evaluation B (Post-1980)) “no conclusion”; under setting [5], “inactive; negative”. In addition, the call under setting [3] is “active; positive”.

Regarding `Cc1ccc2cccc(O)c2n1`, under setting [2], the mutagenic call is “no conclusion”.

The values are drawn from PubChem BioAssay AID1259408 (Genetic Toxicology Data Bank (GENE-TOX), 2018).
